Assay results reported in PubChem BioAssay (NCI).
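How tested: cells in 96-well plates exposed to compound for 48 hours at five concentrations. GI50 is the concentration that inhibits growth by half. The concentration for full growth arrest is given as TGI.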

Key:
Assay in all cases: DTP human tumour cell line panel, 48 h
786-0 renal = tested on: 786-0 renal
A498 renal = tested on: A498 renal
A549 NSCLC = tested on: A549 NSCLC
ACHN renal = tested on: ACHN renal
BT-549 breast = tested on: BT-549 breast
CAKI-1 renal = tested on: CAKI-1 renal
CCRF-CEM leukemia = tested on: CCRF-CEM leukemia
COLO 205 colon = tested on: COLO 205 colon
DU-145 prostate = tested on: DU-145 prostate
EKVX NSCLC = tested on: EKVX NSCLC
HCC-2998 colon = tested on: HCC-2998 colon
HCT-116 colon = tested on: HCT-116 colon
HCT-15 colon = tested on: HCT-15 colon
HL-60(TB) leukemia = tested on: HL-60(TB) leukemia
HOP-62 NSCLC = tested on: HOP-62 NSCLC
HOP-92 NSCLC = tested on: HOP-92 NSCLC
HS 578T breast = tested on: HS 578T breast
HT29 colon = tested on: HT29 colon
IGROV1 ovarian = tested on: IGROV1 ovarian
K-562 leukemia = tested on: K-562 leukemia
KM12 colon = tested on: KM12 colon
LOX IMVI melanoma = tested on: LOX IMVI melanoma
M14 melanoma = tested on: M14 melanoma
MALME-3M melanoma = tested on: MALME-3M melanoma
MCF7 breast = tested on: MCF7 breast
MDA-MB-231 breast = tested on: MDA-MB-231 breast
MDA-MB-435 = tested on: MDA-MB-435
MOLT-4 leukemia = tested on: MOLT-4 leukemia
NCI-H226 lung = tested on: NCI-H226 lung
NCI-H23 lung = tested on: NCI-H23 lung
NCI-H460 lung = tested on: NCI-H460 lung
NCI-H522 lung = tested on: NCI-H522 lung
NCI/ADR-RES ovarian = tested on: NCI/ADR-RES ovarian
OVCAR-3 ovarian = tested on: OVCAR-3 ovarian
OVCAR-4 ovarian = tested on: OVCAR-4 ovarian
OVCAR-5 ovarian = tested on: OVCAR-5 ovarian
OVCAR-8 ovarian = tested on: OVCAR-8 ovarian
PC-3 prostate = tested on: PC-3 prostate
RPMI-8226 leukemia = tested on: RPMI-8226 leukemia
RXF 393 renal = tested on: RXF 393 renal
SF-268 CNS = tested on: SF-268 CNS
SF-295 CNS = tested on: SF-295 CNS
SF-539 CNS = tested on: SF-539 CNS
SK-MEL-2 melanoma = tested on: SK-MEL-2 melanoma
SK-MEL-28 melanoma = tested on: SK-MEL-28 melanoma
SK-MEL-5 melanoma = tested on: SK-MEL-5 melanoma
SK-OV-3 ovarian = tested on: SK-OV-3 ovarian
SN12C renal = tested on: SN12C renal
SNB-19 CNS = tested on: SNB-19 CNS
SNB-75 CNS = tested on: SNB-75 CNS
SR leukemia = tested on: SR leukemia
SW-620 colon = tested on: SW-620 colon
T-47D breast = tested on: T-47D breast
TK-10 renal = tested on: TK-10 renal
U251 CNS = tested on: U251 CNS
UACC-257 melanoma = tested on: UACC-257 melanoma
UACC-62 melanoma = tested on: UACC-62 melanoma
UO-31 renal = tested on: UO-31 renal

COc1cc2c3c(n(CCCNC4CCC4)c(=O)c2cc1OC)-c1cc2c(cc1C3=O)OCO2
GI50 (786-0 renal): 1.54 µM | TGI (786-0 renal): 3.05 µM | GI50 (A498 renal): 14.5 µM | TGI (A498 renal): 29.2 µM | GI50 (A549 NSCLC): 1.3 µM | TGI (A549 NSCLC): 3.31 µM | GI50 (ACHN renal): 0.873 µM | TGI (ACHN renal): 2.36 µM | GI50 (BT-549 breast): 7.27 µM | TGI (BT-549 breast): 22.5 µM | GI50 (CAKI-1 renal): 1.11 µM | TGI (CAKI-1 renal): 2.37 µM | GI50 (CCRF-CEM leukemia): 0.0757 µM | TGI (CCRF-CEM leukemia): 3.55 µM | GI50 (COLO 205 colon): 1.79 µM | TGI (COLO 205 colon): 6.62 µM | GI50 (DU-145 prostate): 1.04 µM | TGI (DU-145 prostate): 2.56 µM | GI50 (EKVX NSCLC): 1.96 µM | TGI (EKVX NSCLC): 4.14 µM | GI50 (HCC-2998 colon): 1.42 µM | TGI (HCC-2998 colon): 2.82 µM | GI50 (HCT-116 colon): 1.05 µM | TGI (HCT-116 colon): 2.78 µM | GI50 (HCT-15 colon): 1.33 µM | TGI (HCT-15 colon): 3.13 µM | GI50 (HL-60(TB) leukemia): 0.525 µM | TGI (HL-60(TB) leukemia): 1.52 µM | GI50 (HOP-62 NSCLC): 0.393 µM | TGI (HOP-62 NSCLC): 1.97 µM | GI50 (HOP-92 NSCLC): 5.26 µM | TGI (HOP-92 NSCLC): 13.4 µM | GI50 (HS 578T breast): 6.32 µM | TGI (HS 578T breast): 15.8 µM | GI50 (HT29 colon): 1.28 µM | TGI (HT29 colon): 2.85 µM | GI50 (IGROV1 ovarian): 1.48 µM | TGI (IGROV1 ovarian): 3.5 µM | GI50 (K-562 leukemia): 0.554 µM | TGI (K-562 leukemia): 3.22 µM | GI50 (KM12 colon): 2.01 µM | TGI (KM12 colon): 5.72 µM | GI50 (LOX IMVI melanoma): 0.36 µM | TGI (LOX IMVI melanoma): 0.884 µM | GI50 (M14 melanoma): 1.35 µM | TGI (M14 melanoma): 2.8 µM | GI50 (MALME-3M melanoma): 4.34 µM | TGI (MALME-3M melanoma): 9.28 µM | GI50 (MCF7 breast): 0.109 µM | TGI (MCF7 breast): 1.87 µM | GI50 (MDA-MB-231 breast): 1.32 µM | TGI (MDA-MB-231 breast): 2.78 µM | GI50 (MDA-MB-435): 1.59 µM | TGI (MDA-MB-435): 3.05 µM | GI50 (MOLT-4 leukemia): 0.0267 µM | TGI (MOLT-4 leukemia): 1.91 µM | GI50 (NCI-H226 lung): 5.54 µM | TGI (NCI-H226 lung): 26.1 µM | GI50 (NCI-H23 lung): 1.29 µM | TGI (NCI-H23 lung): 3.19 µM | GI50 (NCI-H460 lung): 0.145 µM | TGI (NCI-H460 lung): 1.66 µM | GI50 (NCI-H522 lung): 0.581 µM | TGI (NCI-H522 lung): 2.49 µM | GI50 (NCI/ADR-RES ovarian): 1.09 µM | TGI (NCI/ADR-RES ovarian): 3.61 µM | GI50 (OVCAR-3 ovarian): 1.51 µM | TGI (OVCAR-3 ovarian): 3.05 µM | GI50 (OVCAR-4 ovarian): 1.77 µM | TGI (OVCAR-4 ovarian): 3.33 µM | GI50 (OVCAR-5 ovarian): 1.89 µM | TGI (OVCAR-5 ovarian): 3.44 µM | GI50 (OVCAR-8 ovarian): 1.3 µM | TGI (OVCAR-8 ovarian): 3.61 µM | GI50 (PC-3 prostate): 1.22 µM | TGI (PC-3 prostate): 2.87 µM | GI50 (RPMI-8226 leukemia): 0.492 µM | TGI (RPMI-8226 leukemia): 2.18 µM | GI50 (RXF 393 renal): 1.34 µM | TGI (RXF 393 renal): 2.85 µM | GI50 (SF-268 CNS): 0.95 µM | TGI (SF-268 CNS): 2.83 µM | GI50 (SF-295 CNS): 0.274 µM | TGI (SF-295 CNS): 1.74 µM | GI50 (SF-539 CNS): 1.21 µM | TGI (SF-539 CNS): 2.56 µM | GI50 (SK-MEL-2 melanoma): 18.4 µM | TGI (SK-MEL-2 melanoma): 33.7 µM | GI50 (SK-MEL-28 melanoma): 1.75 µM | TGI (SK-MEL-28 melanoma): 3.38 µM | GI50 (SK-MEL-5 melanoma): 5.09 µM | TGI (SK-MEL-5 melanoma): 10.3 µM | GI50 (SK-OV-3 ovarian): 0.977 µM | TGI (SK-OV-3 ovarian): 5.63 µM | GI50 (SN12C renal): 1.48 µM | TGI (SN12C renal): 3.19 µM | GI50 (SNB-19 CNS): 1.24 µM | TGI (SNB-19 CNS): 3.18 µM | GI50 (SNB-75 CNS): 1.12 µM | TGI (SNB-75 CNS): 2.64 µM | GI50 (SR leukemia): 0.0576 µM | TGI (SR leukemia): 0.793 µM | GI50 (SW-620 colon): 0.452 µM | TGI (SW-620 colon): 2.56 µM | GI50 (T-47D breast): 3.73 µM | TGI (T-47D breast): 10.2 µM | GI50 (TK-10 renal): 19 µM | TGI (TK-10 renal): 33.7 µM | GI50 (U251 CNS): 0.838 µM | TGI (U251 CNS): 2.87 µM | GI50 (UACC-257 melanoma): 16.3 µM | TGI (UACC-257 melanoma): 34.2 µM | GI50 (UACC-62 melanoma): 4.2 µM | TGI (UACC-62 melanoma): 12.5 µM | GI50 (UO-31 renal): 1.66 µM | TGI (UO-31 renal): 4.53 µM
